From patent publication US20230255966A1, “A COMBINATION OF A CBP/P300 BROMODOMAIN INHIBITOR AND AN EGFR INHIBITOR FOR USE IN TREATING EGFR-MUTANT NSCLC” (TOLREMO THERAPEUTICS AG, priority 2020, published 2023)

Tests used:
[1] = biological target: T1, BRD2(1) (Homo sapiens, UniProt P25440); test: BROMOscan BromoKdMAX; format: binding
T1 construct: T7 phage strains displaying bromodomains were grown in parallel; purchased DiscoverX; host or cells: T7 phage in E. coli host derived from BL21
Procedure: (§1) A BromoKdMAX was performed at DiscoverX.
(§2) The assay principle is the following: BROMOscan™ is a novel industry leading platform for identifying small molecule bromodomain inhibitors. Based on proven KINOMEscan™ technology, BRO-MOscan™ employs a proprietary ligand binding site-directed competition assay to quantitatively measure interactions between test compounds and bromodomains.
(§3) The assay was conducted as follows: For the Bromodomain assays, T7 phage strains displaying bromodomains were grown in parallel in 24-well blocks in an E. coli host derived from the BL21 strain. E. coli were grown to log-phase and infected with T7 phage from a frozen stock (multiplicity of infection=0.4) and incubated with shaking at 32° C. until lysis (90-150 minutes). The lysates were centrifuged (5,000×g) and filtered (0.2 μm) to remove cell debris. […] The liganded beads were blocked with excess biotin and washed with blocking buffer (SeaBlock (Pierce), 1% BSA, 0.05% Tween 20, 1 mM DTT) to remove unbound ligand and to reduce non-specific phage binding. […] Test compounds were prepared as 1000× stocks in 100% DMSO. Kds were determined using an 11-point 3-fold compound dilution series with one DMSO control point. […] The compounds were then diluted directly into the assays such that the final concentration of DMSO was 0.09%. All reactions performed in polypropylene 384-well plates. Each was a final volume of 0.02 ml. […] The bromodomain concentration in the eluates was measured by qPCR.

[2] = biological target: T2, BRD2(1, 2) (Homo sapiens, UniProt P25440); test: BROMOscan BromoKdMAX; format: binding
T2 construct: T7 phage strains displaying bromodomains were grown in parallel; purchased DiscoverX; host or cells: T7 phage in E. coli host derived from BL21
T2 sequence (P25440 71-455 limits assumed): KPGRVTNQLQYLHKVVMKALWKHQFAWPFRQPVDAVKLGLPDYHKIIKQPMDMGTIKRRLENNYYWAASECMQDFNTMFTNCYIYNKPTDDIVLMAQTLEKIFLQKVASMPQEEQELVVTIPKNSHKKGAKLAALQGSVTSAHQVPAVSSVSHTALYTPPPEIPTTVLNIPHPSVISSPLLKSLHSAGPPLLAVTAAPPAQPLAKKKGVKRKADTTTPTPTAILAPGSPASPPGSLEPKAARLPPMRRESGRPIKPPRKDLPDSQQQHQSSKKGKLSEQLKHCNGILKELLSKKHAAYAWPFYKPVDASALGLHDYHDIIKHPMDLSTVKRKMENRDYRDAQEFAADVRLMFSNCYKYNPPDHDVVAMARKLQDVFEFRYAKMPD
Procedure: as §1, §2, §3

[3] = biological target: T3, BRD2(2) (Homo sapiens, UniProt P25440); test: BROMOscan BromoKdMAX; format: binding
T3 construct: T7 phage strains displaying bromodomains were grown in parallel; purchased DiscoverX; host or cells: T7 phage in E. coli host derived from BL21
T3 sequence (P25440 344-453 limits assumed): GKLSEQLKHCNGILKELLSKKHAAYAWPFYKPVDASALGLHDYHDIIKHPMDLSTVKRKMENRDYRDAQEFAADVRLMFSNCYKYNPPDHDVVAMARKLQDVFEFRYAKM
Procedure: as §1, §2, §3

[4] = biological target: T4, BRD4(1) (Homo sapiens, UniProt O60885); test: BROMOscan BromoKdMAX; format: binding
T4 construct: T7 phage strains displaying bromodomains were grown in parallel; purchased DiscoverX; host or cells: T7 phage in E. coli host derived from BL21
Procedure: as §1, §2, §3

[5] = biological target: T5, BRD4(1, 2) (Homo sapiens, UniProt O60885); test: BROMOscan BromoKdMAX; format: binding
T5 construct: T7 phage strains displaying bromodomains were grown in parallel; purchased DiscoverX; host or cells: T7 phage in E. coli host derived from BL21
Procedure: as §1, §2, §3

[6] = biological target: T6, BRD4(2) (Homo sapiens, UniProt O60885); test: BROMOscan BromoKdMAX; format: binding
T6 construct: T7 phage strains displaying bromodomains were grown in parallel; purchased DiscoverX; host or cells: T7 phage in E. coli host derived from BL21
Procedure: as §1, §2, §3

[7] = biological target: T7, BRD4(full-length, short-iso.) (Homo sapiens, UniProt O60885); test: BROMOscan BromoKdMAX; format: binding
T7 construct: BRD4 (full-length, short-iso.); purchased DiscoverX; host or cells: T7 phage in E. coli host derived from BL21 (general protocol)
Procedure: as §1, §2, §3

[8] = biological target: T8, BRD7 (Homo sapiens, UniProt Q9NPI1); test: BROMOscan BromoKdMAX; format: binding
T8 construct: T7 phage strains displaying bromodomains were grown in parallel; purchased DiscoverX; host or cells: T7 phage in E. coli host derived from BL21
T8 sequence (Q9NPI1 131-235 limits assumed): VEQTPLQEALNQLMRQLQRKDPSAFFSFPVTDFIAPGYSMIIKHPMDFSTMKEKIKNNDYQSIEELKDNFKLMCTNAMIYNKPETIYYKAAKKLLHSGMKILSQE
Procedure: as §1, §2, §3

[9] = biological target: T9, BRD8(1) (Homo sapiens, UniProt Q9H0E9); test: BROMOscan BromoKdMAX; format: binding
T9 construct: T7 phage strains displaying bromodomains were grown in parallel; purchased DiscoverX; host or cells: T7 phage in E. coli host derived from BL21
T9 sequence (Q9H0E9 706-811 limits assumed): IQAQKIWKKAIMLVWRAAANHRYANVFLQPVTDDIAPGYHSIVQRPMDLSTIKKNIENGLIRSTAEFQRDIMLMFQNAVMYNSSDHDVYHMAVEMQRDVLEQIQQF
Procedure: as §1, §2, §3

[10] = biological target: T10, BRD8(2) (Homo sapiens, UniProt Q9H0E9); test: BROMOscan BromoKdMAX; format: binding
T10 construct: T7 phage strains displaying bromodomains were grown in parallel; purchased DiscoverX; host or cells: T7 phage in E. coli host derived from BL21
T10 sequence (Q9H0E9 1099-1207 limits assumed): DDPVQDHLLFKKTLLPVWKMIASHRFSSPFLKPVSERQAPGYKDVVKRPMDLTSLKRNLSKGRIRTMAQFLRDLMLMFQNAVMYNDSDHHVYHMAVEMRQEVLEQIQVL
Procedure: as §1, §2, §3

[11] = biological target: T11, BRD9 (Homo sapiens, UniProt Q9H8M2); test: BROMOscan BromoKdMAX; format: binding
T11 construct: T7 phage strains displaying bromodomains were grown in parallel; purchased DiscoverX; host or cells: T7 phage in E. coli host derived from BL21
T11 sequence (Q9H8M2 136-240 limits assumed): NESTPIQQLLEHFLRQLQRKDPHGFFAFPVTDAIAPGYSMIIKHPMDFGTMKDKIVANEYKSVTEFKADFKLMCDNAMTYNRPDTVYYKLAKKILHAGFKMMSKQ
Procedure: as §1, §2, §3

[12] = biological target: T12, BRDT(1) (Homo sapiens, UniProt Q58F21); test: BROMOscan BromoKdMAX; format: binding
T12 construct: T7 phage strains displaying bromodomains were grown in parallel; purchased DiscoverX; host or cells: T7 phage in E. coli host derived from BL21
Procedure: as §1, §2, §3

[13] = biological target: T13, BRDT(1, 2) (Homo sapiens, UniProt Q58F21); test: BROMOscan BromoKdMAX; format: binding
T13 construct: T7 phage strains displaying bromodomains were grown in parallel; purchased DiscoverX; host or cells: T7 phage in E. coli host derived from BL21
Procedure: as §1, §2, §3

[14] = biological target: T14, BRDT(2) (Homo sapiens, UniProt Q58F21); test: BROMOscan BromoKdMAX; format: binding
T14 construct: T7 phage strains displaying bromodomains were grown in parallel; purchased DiscoverX; host or cells: T7 phage in E. coli host derived from BL21
Procedure: as §1, §2, §3

[15] = biological target: T15, BRPF1 (Homo sapiens, UniProt P55201); test: BROMOscan BromoKdMAX; format: binding
T15 construct: T7 phage strains displaying bromodomains were grown in parallel; purchased DiscoverX; host or cells: T7 phage in E. coli host derived from BL21
T15 sequence (P55201 628-732 limits assumed): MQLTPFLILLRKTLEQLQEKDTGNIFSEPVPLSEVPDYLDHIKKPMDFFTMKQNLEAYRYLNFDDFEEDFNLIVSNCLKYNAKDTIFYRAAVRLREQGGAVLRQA
Procedure: as §1, §2, §3

[16] = biological target: T16, CECR2 (Homo sapiens, UniProt Q9BXF3); test: BROMOscan BromoKdMAX; format: binding
T16 construct: T7 phage strains displaying bromodomains were grown in parallel; purchased DiscoverX; host or cells: T7 phage in E. coli host derived from BL21
T16 sequence (Q9BXF3 434-538 limits assumed): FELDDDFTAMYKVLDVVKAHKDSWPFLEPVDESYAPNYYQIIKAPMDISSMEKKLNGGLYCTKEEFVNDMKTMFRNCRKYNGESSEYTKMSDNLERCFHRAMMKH
Procedure: as §1, §2, §3

[17] = biological target: T17, PCAF (Homo sapiens, UniProt Q92831); test: BROMOscan BromoKdMAX; format: binding
T17 construct: T7 phage strains displaying bromodomains were grown in parallel; purchased DiscoverX (BROMOscan / BromoKdMAX service); host or cells: T7 phage in E. coli host derived from BL21
T17 sequence (Q92831 723-827 limits assumed): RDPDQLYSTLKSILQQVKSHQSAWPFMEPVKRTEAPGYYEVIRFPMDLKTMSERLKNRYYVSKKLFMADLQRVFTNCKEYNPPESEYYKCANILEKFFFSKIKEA
Procedure: as §1, §2, §3

[18] = biological target: T18, TAF1(2) (Homo sapiens, UniProt P21675); test: BROMOscan BromoKdMAX; format: binding
T18 construct: T7 phage strains displaying bromodomains were grown in parallel; purchased DiscoverX (BROMOscan / BromoKdMAX service); host or cells: T7 phage in E. coli host derived from BL21
T18 sequence (P21675 1519-1628 limits assumed): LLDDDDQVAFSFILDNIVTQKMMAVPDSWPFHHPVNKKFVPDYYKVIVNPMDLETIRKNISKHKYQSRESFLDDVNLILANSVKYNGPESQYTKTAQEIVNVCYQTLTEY
Procedure: as §1, §2, §3

[19] = biological target: T19, TAF1L(2) (Homo sapiens, UniProt Q8IZX4); test: BROMOscan BromoKdMAX; format: binding
T19 construct: T7 phage strains displaying bromodomains were grown in parallel; purchased DiscoverX (BROMOscan / BromoKdMAX service); host or cells: T7 phage in E. coli host derived from BL21
T19 sequence (Q8IZX4 1517-1626 limits assumed): as the sequence (P21675 1519-1628 limits assumed) above, with V46M, M51V, V102I, L107I counted along it
Procedure: as §1, §2, §3

[20] = biological target: T20, TRIM24(Bromo.) (Homo sapiens, UniProt O15164); test: BROMOscan BromoKdMAX; format: binding
T20 construct: TRIM24(Bromo.); purchased DiscoverX (BROMOscan / BromoKdMAX service); host or cells: T7 phage in E. coli host derived from BL21
T20 sequence (O15164 899-1004 limits assumed): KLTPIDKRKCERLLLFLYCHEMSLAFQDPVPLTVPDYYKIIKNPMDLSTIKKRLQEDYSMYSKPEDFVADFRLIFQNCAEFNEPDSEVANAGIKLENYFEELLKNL
Procedure: as §1, §2, §3

[21] = biological target: T21, TRIM24(PHD, Bromo.) (Homo sapiens, UniProt O15164); test: BROMOscan BromoKdMAX; format: binding
T21 construct: TRIM24(PHD, Bromo.); purchased DiscoverX (BROMOscan / BromoKdMAX service); host or cells: T7 phage in E. coli host derived from BL21
T21 sequence (O15164 824-1006 limits assumed): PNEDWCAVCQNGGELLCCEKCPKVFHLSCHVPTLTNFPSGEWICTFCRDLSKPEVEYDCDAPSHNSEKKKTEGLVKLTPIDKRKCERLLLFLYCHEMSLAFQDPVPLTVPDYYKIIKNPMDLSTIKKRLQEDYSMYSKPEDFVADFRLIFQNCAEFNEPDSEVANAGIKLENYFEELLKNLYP
Procedure: as §1, §2, §3

[22] = biological target: T22, WDR9(2) (Homo sapiens, UniProt Q9NSI6); test: BROMOscan BromoKdMAX; format: binding
T22 construct: T7 phage strains displaying bromodomains were grown in parallel; purchased DiscoverX (BROMOscan / BromoKdMAX service); host or cells: T7 phage in E. coli host derived from BL21
T22 sequence (Q9NSI6 1313-1418 limits assumed): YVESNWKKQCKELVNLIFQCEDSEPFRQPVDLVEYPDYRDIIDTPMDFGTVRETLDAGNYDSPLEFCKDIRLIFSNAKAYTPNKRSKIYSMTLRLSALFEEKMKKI
Procedure: as §1, §2, §3

[23] = biological target: T23, BAZ2B (Homo sapiens, UniProt Q9UIF8); test: BROMOscan BromoKdMAX; format: binding
T23 construct: T7 phage strains displaying bromodomains were grown in parallel; purchased DiscoverX; host or cells: T7 phage in E. coli host derived from BL21
T23 sequence (Q9UIF8 2060-2164 limits assumed): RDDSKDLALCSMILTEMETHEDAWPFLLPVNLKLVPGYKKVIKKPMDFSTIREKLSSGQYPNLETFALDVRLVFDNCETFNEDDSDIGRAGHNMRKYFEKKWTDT
Procedure: as §1
as §2, with “bromodomains. This robust and reliable assay panel is suitable for high throughput screening and delivers quantitative ligand binding data to facilitate the identification and optimization of potent and selective small molecule bromodomain inhibitors.” for “bromodomains.”
as §3

[24] = biological target: T24, SMARCA2 (Homo sapiens, UniProt P51531); test: BROMOscan BromoKdMAX; format: binding
T24 construct: T7 phage strains displaying bromodomains were grown in parallel; purchased DiscoverX (BROMOscan / BromoKdMAX service); host or cells: T7 phage in E. coli host derived from BL21
T24 sequence (P51531 1378-1506 limits assumed): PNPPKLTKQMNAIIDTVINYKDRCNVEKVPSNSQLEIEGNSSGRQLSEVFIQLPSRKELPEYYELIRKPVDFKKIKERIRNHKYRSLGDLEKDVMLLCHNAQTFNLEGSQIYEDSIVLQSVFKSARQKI
Procedure: as §1
as §2, with “bromodomains. This robust and reliable assay panel is suitable for high throughput screening and delivers quantitative ligand binding data to facilitate the identification and optimization of potent and selective small molecule bromodomain inhibitors.” for “bromodomains.”
as §3

[25] = test system: HCC827 cells; test: Label-free determination of cell proliferation (CELIGO); format: cell-based; settings: 21 days (FIG. 9)
[26] = test system: NCI-H1975 cells; test: as above; format: cell-based

T1 sequence (P25440 74-180 limits assumed): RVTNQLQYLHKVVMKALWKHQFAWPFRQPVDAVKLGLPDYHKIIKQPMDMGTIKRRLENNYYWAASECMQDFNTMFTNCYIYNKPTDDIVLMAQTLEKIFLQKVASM

Kd [1]: 230 nM
Kd [2]: 610 nM
Kd [3]: 2100 nM
Kd [4]: 250 nM
Kd [5]: 6900 nM
Kd [6]: 5200 nM
Kd [7]: 440 nM
Kd [8]: 5100 nM
Kd [9]: > 10000 nM
Kd [10]: > 10000 nM
Kd [11]: 790 nM
Kd [12]: 390 nM
Kd [13]: 2400 nM
Kd [14]: 8900 nM
Kd [15]: 1400 nM
Kd [16]: > 10000 nM
Kd [17]: > 10000 nM
Kd [18]: 7900 nM
Kd [19]: > 10000 nM
Kd [20]: 680 nM
Kd [21]: 1900 nM
Kd [22]: > 10000 nM
Kd [23]: > 10000 nM
Kd [24]: > 10000 nM
Structure (SMILES): CO[C@H]1CC[C@H](n2c([C@@H]3CCCC(=O)N3c3ccc(F)c(F)c3)nc3cc(-c4c(C)noc4C)ccc32)CC1 [CCS1477]
Development of drug resistance / re-growth ([25]; HCC827, combined with 100 nM osimertinib): prevent the development of drug resistance
Effect on cell proliferation on their own ([25]; HCC827, single agent (1 μM Compound A, 0.2 μM Compound C, 0.2 μM CCS1477, 1 μM FT-6876, 0.2 μM GNE-781)): do not affect cell proliferation
Growth long-term ([26]; NCI-H1975, 50 nM osimertinib with 2.0, 0.5 or 0.125 μM co-treatment (FIG. 5)): delayed
Effect on cell numbers on their own ([26]; NCI-H1975, 2 μM single agent (FIG. 5)): no/weak effect on cell numbers
